According to ChEMBL document CHEMBL1136995, “2,6-Diphenylthiazolo[3,2-b][1,2,4]triazoles as telomeric G-quadruplex stabilizers” (Bioorg Med Chem Lett, 2009):
Active and inactive are the calls of the source. No cut-off for these calls is given here.

The compounds below were run on Nucleic Acid (assay: Binding affinity to G-quadruplex F21T DNA assessed as change in melting temperature at 3 uM under Na+ ionic conditions by FRET assay).
Format: nucleic-acid assay

Row | ΔTm | SMILES
1 | < 1 °C | O=C(NCCN1CCCCC1)c1ccc(-c2csc3nc(-c4ccc(O)cc4)nn23)cc1
2 | < 1 °C | CCOC(=O)c1ccc(-c2csc3nc(-c4ccc(OCc5ccccc5)cc4)nn23)cc1
3 | < 1 °C | Oc1ccc(-c2nc3scc(-c4ccc(O)cc4)n3n2)cc1
4 | 5 °C | O=C(NCCN1CCCCC1)c1ccc(-c2csc3nc(-c4ccc(OCCN5CCCCC5)cc4)nn23)cc1
5 | 2.1 °C | c1cc(-c2nc3scc(-c4ccc(OCCN5CCCCC5)cc4)n3n2)ccc1OCCN1CCCCC1
6 | < 1 °C | O=C(NCCN1CCCCC1)c1ccc(-c2csc3nc(-c4ccc(OCc5ccccc5)cc4)nn23)cc1
7 | < 1 °C | c1ccc(COc2ccc(-c3nc4scc(-c5ccc(OCc6ccccc6)cc5)n4n3)cc2)cc1
8 | 5.9 °C | O=C(NCCN1CCCCC1)c1ccc(-c2csc3nc(-c4ccc(OCCN5CCCC5)cc4)nn23)cc1

These compounds were tested on Nucleic Acid (assay: Binding affinity to G-quadruplex F21T DNA assessed as change in melting temperature at 0.3 uM under K+ ionic conditions by FRET assay).
Format: nucleic-acid assay

Row | ΔTm | SMILES
9 | 15 °C | NC(=O)c1cccc(C(N)=O)n1

These compounds were tested on Nucleic Acid (assay: Binding affinity to G-quadruplex F21T DNA assessed as change in melting temperature at 3 uM under K+ ionic conditions by FRET assay).
Format: nucleic-acid assay

Row | ΔTm | SMILES
10 | 1.8 °C | O=C(NCCN1CCCCC1)c1ccc(-c2csc3nc(-c4ccc(O)cc4)nn23)cc1
11 | < 1 °C | CCOC(=O)c1ccc(-c2csc3nc(-c4ccc(OCc5ccccc5)cc4)nn23)cc1
12 | < 1 °C | Oc1ccc(-c2nc3scc(-c4ccc(O)cc4)n3n2)cc1
13 | 11.2 °C | O=C(NCCN1CCCCC1)c1ccc(-c2csc3nc(-c4ccc(OCCN5CCCCC5)cc4)nn23)cc1
14 | 8.7 °C | c1cc(-c2nc3scc(-c4ccc(OCCN5CCCCC5)cc4)n3n2)ccc1OCCN1CCCCC1
15 | 2.7 °C | O=C(NCCN1CCCCC1)c1ccc(-c2csc3nc(-c4ccc(OCc5ccccc5)cc4)nn23)cc1
16 | < 1 °C | c1ccc(COc2ccc(-c3nc4scc(-c5ccc(OCc6ccccc6)cc5)n4n3)cc2)cc1
17 | 14.6 °C | O=C(NCCN1CCCCC1)c1ccc(-c2csc3nc(-c4ccc(OCCN5CCCC5)cc4)nn23)cc1

The compounds below were run on Nucleic Acid (assay: Binding affinity to G-quadruplex F21T DNA assessed as quadruplex stabilization at 3 uM by FRET assay in presence of duplex ds26 oligonucleotide).
Format: nucleic-acid assay

Row | Activity | SMILES
18 | Active | O=C(NCCN1CCCCC1)c1ccc(-c2csc3nc(-c4ccc(OCCN5CCCCC5)cc4)nn23)cc1
19 | Active | c1cc(-c2nc3scc(-c4ccc(OCCN5CCCCC5)cc4)n3n2)ccc1OCCN1CCCCC1
20 | inactive | O=C(NCCN1CCCCC1)c1ccc(-c2csc3nc(-c4ccc(OCCN5CCCC5)cc4)nn23)cc1

Each compound was assayed on Nucleic Acid (assay: Binding affinity to G-quadruplex F21T DNA assessed as change in melting temperature at 0.1 uM under K+ ionic conditions by FRET assay).
Format: nucleic-acid assay

Row | ΔTm | SMILES
21 | 10 °C | NC(=O)c1cccc(C(N)=O)n1

Each compound was assayed on Nucleic Acid (assay: Binding affinity to G-quadruplex F21T DNA assessed as change in melting temperature at 0.8 uM under K+ ionic conditions by FRET assay).
Format: nucleic-acid assay

Row | ΔTm | SMILES
22 | 15 °C | Cc1oc2nc1-c1nc(co1)-c1nc(co1)-c1nc(co1)-c1nc(co1)-c1nc(co1)C1=NC(CS1)c1nc-2c(C)o1 (stereo not drawn)

What follows are compounds tested on Nucleic Acid (assay: Binding affinity to G-quadruplex F21T DNA assessed as change in melting temperature at 0.6 uM under K+ ionic conditions by FRET assay).
Format: nucleic-acid assay

Row | ΔTm | SMILES
23 | 10 °C | Cc1oc2nc1-c1nc(co1)-c1nc(co1)-c1nc(co1)-c1nc(co1)-c1nc(co1)C1=NC(CS1)c1nc-2c(C)o1 (stereo not drawn)
